A value given as a limit tells only on which side of the number the result lay.

Usually Emax stands for the greatest response seen or fitted, relative to the assay's reference. Usually EC50 stands for the concentration at which the effect is half-maximal. Usually half-life stands for the time in which the quantity being followed falls by half. High values mean slow loss, low ones fast loss. A word on the fraction unbound: it is free concentration divided by total concentration. One may read the Papp A→B as the apparent permeability from the apical to the basolateral side of a cell layer.

For data set [1], the target named is T1, Mu-type opioid receptor (Homo sapiens, UniProt P35372). The experiment in a line: Agonist activity at mu opioid receptor (unknown origin) assessed as maximal cAMP level incubated for 40 mins by spectrophotometry relative to DAMGO. In kind it is functional. The settings on record: filed as agonist. Background: Changes in cAMP serve as a functional read-out for many G protein-coupled receptors.

The target of data set [2] is T1, Mu-type opioid receptor. Kind of data set: Agonist activity at mu opioid receptor (unknown origin) assessed as increase in cAMP level incubated for 40 mins by spectrophotometry. It is filed as functional.
For data set [3], the target named is T1, Mu-type opioid receptor. The experiment in a line: Agonist activity at mu opioid receptor (unknown origin) assessed as maximal beta arrestin-2 recruitment incubated for 3 days by PathHunter assay relative to DAMGO. In kind it is functional. Particulars: time 3.0 day. Background: Arrestin recruitment assays detect the binding of arrestin to an activated receptor.

Data set [4] can be described thus: Metabolic stability in human liver microsomes assessed as intrinsic clearance preincubated for 10 mins followed by NADPH addition and measured after 60 mins by LC-MS/MS analysis. In kind it is ADME, Microsome. Particulars: time 70 min, read-out: CLH. For orientation: Microsomes from liver hold many membrane-bound enzymes, among them those of drug oxidation.
Data set [5] has as its target T1, Mu-type opioid receptor. Kind of data set: Agonist activity at mu opioid receptor (unknown origin) assessed as beta arrestin-2 recruitment incubated for 3 days by PathHunter assay. In kind it is functional.
The nature of data set [6]: Half life of compound. It is filed as physicochemical.
Data set [7] in a line: Metabolic stability in dog liver microsomes assessed as intrinsic clearance preincubated for 10 mins followed by NADPH addition and measured after 60 mins by LC-MS/MS analysis. It is filed as ADME, Canis lupus familiaris, Microsome. The settings on record: time 70 min, read-out: CLH.
Data set [8] is described as follows: Metabolic stability in rat liver microsomes assessed as intrinsic clearance preincubated for 10 mins followed by NADPH addition and measured after 60 mins by LC-MS/MS analysis. In kind it is ADME, Microsome. Particulars: time 70 min, read-out: CLH.
Data set [9] in a line: Plasma protein binding in rat plasma assessed as unbound fraction. It is filed as ADME, cell-free.
Data set [10] can be described thus: Plasma protein binding in human plasma assessed as unbound fraction. It is filed as ADME, cell-free.
Data set [11] is described as follows: Apparent permeability across apical to basal membrane in human Caco-2 cells. It is filed as ADME, cell-based.
The nature of data set [12]: Plasma protein binding in dog plasma assessed as unbound fraction. It is filed as ADME, cell-free, Canis lupus familiaris.

T1 sequence (P35372 whole entry): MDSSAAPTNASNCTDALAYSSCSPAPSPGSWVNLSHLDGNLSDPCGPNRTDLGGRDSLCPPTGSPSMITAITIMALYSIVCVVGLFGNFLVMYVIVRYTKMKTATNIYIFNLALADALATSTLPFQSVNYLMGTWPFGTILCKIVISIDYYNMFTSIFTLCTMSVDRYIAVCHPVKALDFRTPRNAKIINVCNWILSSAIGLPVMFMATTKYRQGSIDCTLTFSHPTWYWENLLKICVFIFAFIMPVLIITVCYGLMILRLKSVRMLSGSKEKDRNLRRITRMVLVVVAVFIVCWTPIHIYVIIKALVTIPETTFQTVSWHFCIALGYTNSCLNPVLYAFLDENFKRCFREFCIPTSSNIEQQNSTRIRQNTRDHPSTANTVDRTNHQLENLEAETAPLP

As to `FC1(F)CCc2csc(CNCC[C@@]3(c4ccccn4)CCOC4(CCCC4)C3)c2C1`, the Emax at Mu-type opioid receptor [1] was 92.5%; at Mu-type opioid receptor [3] (filed as agonist) it was 54.3%. Further, the EC50 was found to be 1.8 nM on Mu-type opioid receptor [2] and 11 nM on Mu-type opioid receptor [5]. Further, the CLint scaled in [4] came to 1610 mL/min/kg.

In the case of `Fc1ccc([C@]2(CCNCc3scc4c3CCC4)CCOC3(CCOC3)C2)cc1` (stereo not given in full), the EC50 on Mu-type opioid receptor [2] is 0.07 nM; at Mu-type opioid receptor [5] it was greater than 30000 nM. Moreover, the CLint scaled in data set [4] was found to be 157 mL/min/kg.

`c1ccc([C@]2(CCNCc3scc4c3COC4)CCOC3(CCCC3)C2)nc1`: the Emax came out at 90.5% at Mu-type opioid receptor [1] and 4.4% on Mu-type opioid receptor [3]. For the same compound, the values for the half-maximal effective concentration (EC50) at Mu-type opioid receptor [2] and on Mu-type opioid receptor [5] were 2 nM and 27 nM, respectively. For the same compound, the CLint scaled in [4] is 230 mL/min/kg.

With `Fc1ccc([C@]2(CCNCc3scc4c3CCC4)CCO[C@]3(CCOC3)C2)nc1`, at Mu-type opioid receptor [1], the maximal effect (Emax) turned out to be 95.1%. In [4], the CLint scaled was found to be 108 mL/min/kg.

In the case of `Fc1ccc([C@]2(CCNCc3cncc(Cl)c3)CCOC3(CCOC3)C2)cc1` (stereo not given in full), the Emax on Mu-type opioid receptor [1] was determined as 90.8%. Moreover, the EC50 at Mu-type opioid receptor [2] is 12.8 nM; at Mu-type opioid receptor [5] it was greater than 30000 nM.

On to `Fc1ccc(CNCC[C@@]2(c3ccccn3)CCOC3(CCOC3)C2)cc1Cl` (stereo not given in full), for which the Emax at Mu-type opioid receptor [1] came out at 92.3%. In addition, the EC50 was 26.5 nM at Mu-type opioid receptor [2] and greater than 30000 nM at Mu-type opioid receptor [5].

As to `Cc1ccsc1CNCC[C@@]1(c2ccc(F)cc2)CCOC2(CCOC2)C1` (stereo not given in full), the maximal response (Emax) at Mu-type opioid receptor [1] came out at 61.2%; at Mu-type opioid receptor [3], 2.9%. The EC50 is 4.1 nM at Mu-type opioid receptor [2] and greater than 30000 nM on Mu-type opioid receptor [5].

With `Fc1ccc([C@]2(CCNCc3scc4c3CCC4)CCOC3(CCOCC3)C2)nc1`, the Emax at Mu-type opioid receptor [1] and on Mu-type opioid receptor [3] (filed as agonist) was 125% throughout. For the same compound, the concentration for a half-maximal effect (EC50) at Mu-type opioid receptor [2] is 178 nM; at Mu-type opioid receptor [5] it was 725 nM.

Consider `c1ccc([C@]2(CCNCc3ccc4ccccc4c3)CCOC3(CCOC3)C2)nc1` (stereo not given in full), for which the maximum response (Emax) at Mu-type opioid receptor [1] is 124%; at Mu-type opioid receptor [3], 1.1%. The 50% effective concentration (EC50) on Mu-type opioid receptor [2] was 174 nM; at Mu-type opioid receptor [5], greater than 30000 nM.

In [6], `C[C@@H](NC(=O)[C@@H](N)Cc1ccc(O)cc1)C(=O)NCC(=O)N(C)[C@@H](Cc1ccccc1)C(=O)NCCO` [DAMGO] displayed a half-life of 5.95 min.

On to `c1ccc([C@]2(CCNCc3scc4c3COC4)CCOC3(CCOC3)C2)nc1` (stereo not given in full), for which the maximum response (Emax) at Mu-type opioid receptor [1] is 90.4%. Moreover, the concentration for a half-maximal effect (EC50) at Mu-type opioid receptor [2] was 14.1 nM; on Mu-type opioid receptor [5] it was greater than 30000 nM.

Turning to `c1ccc([C@]2(CCNCc3scc4c3CCC4)CCO[C@]3(CCOC3)C2)nc1`, at Mu-type opioid receptor [1], the maximal response (Emax) was 96.9%. In addition, the EC50 on Mu-type opioid receptor [2] was determined as 0.46 nM. The results for the CLint scaled in data set [7], in data set [4] and in [8] were 203 mL/min/kg, 49 mL/min/kg and 651 mL/min/kg, respectively. Further, the fraction unbound is 0.58 in data set [9], 0.54 in data set [10] and 0.16 in data set [12]. For the same compound, the Papp A→B in [11] is 2.4 ×10⁻⁶ cm/s.

With `Cc1cc(C)cc(CNCC[C@@]2(c3ccccn3)CCOC3(CCOC3)C2)c1` (stereo not given in full), the Emax at Mu-type opioid receptor [1] was 96.6%; at Mu-type opioid receptor [3], 4.6%. The concentration giving a half-maximal response (EC50) at Mu-type opioid receptor [2] is 11.6 nM; at Mu-type opioid receptor [5], greater than 30000 nM.

Take `Cc1cccc(CNCC[C@@]2(c3ccccn3)CCOC3(CCOC3)C2)c1` (stereo not given in full): on Mu-type opioid receptor [1], the Emax came out at 88.9%. The values for the EC50 at Mu-type opioid receptor [2] and on Mu-type opioid receptor [5] were 6.1 nM and greater than 30000 nM, respectively. Also, the CLint scaled in [4] is 8.8 mL/min/kg.

For the compound `Fc1ccc([C@]2(CCNCc3scc4c3COC4)CCOC3(CCOC3)C2)cc1` (stereo not given in full), the results for the half-maximal effective concentration (EC50) at Mu-type opioid receptor [2] and on Mu-type opioid receptor [5] were 6.8 nM and greater than 30000 nM, respectively. The CLint scaled in [4] was determined as 191 mL/min/kg.

As for `Clc1ccc(CNCC[C@@]2(c3ccccn3)CCOC3(CCOC3)C2)s1` (stereo not given in full), the maximum response (Emax) amounted to 93.3% at Mu-type opioid receptor [1] and 2.3% at Mu-type opioid receptor [3]. Also, the EC50 was 22.3 nM on Mu-type opioid receptor [2] and greater than 30000 nM on Mu-type opioid receptor [5].

As to `FC1(F)CCc2c(csc2CNCC[C@@]2(c3ccccn3)CCOC3(CCOC3)C2)C1` (stereo not given in full), the Emax was found to be 101% on Mu-type opioid receptor [1] and 43.1% at Mu-type opioid receptor [3] (filed as agonist). Moreover, the 50% effective concentration (EC50) on Mu-type opioid receptor [2] was found to be 0.5 nM; on Mu-type opioid receptor [5] it was 69 nM.

Take `Fc1ccc([C@]2(CCNCc3scc4c3CCCC4)CCO[C@]3(CCOC3)C2)nc1`: on Mu-type opioid receptor [1], the Emax amounted to 99.5%. Also, the EC50 is 0.2 nM on Mu-type opioid receptor [2] and greater than 30000 nM on Mu-type opioid receptor [5]. In data set [4], the CLint scaled came to 338 mL/min/kg.

On to `c1ccc([C@]2(CCNCC3CCCCC3)CCOC3(CCOC3)C2)nc1` (stereo not given in full), for which the maximum response (Emax) at Mu-type opioid receptor [1] turned out to be 59.2%. In addition, the half-maximal effective concentration (EC50) at Mu-type opioid receptor [2] was 61.6 nM; at Mu-type opioid receptor [5] it was greater than 30000 nM.

Turning to `Clc1cccc(CNCC[C@@]2(c3ccccn3)CCOC3(CCOC3)C2)c1` (stereo not given in full), on Mu-type opioid receptor [1], the Emax amounted to 86.4%. The concentration giving a half-maximal response (EC50) on Mu-type opioid receptor [2] was 2.6 nM; on Mu-type opioid receptor [5], greater than 30000 nM. The CLint scaled in data set [4] amounted to 22.1 mL/min/kg.

Take `FC1(F)Cc2csc(CNCC[C@@]3(c4ccccn4)CCOC4(CCCC4)C3)c2C1`: the maximal effect (Emax) on Mu-type opioid receptor [1] is 96.9%; at Mu-type opioid receptor [3], 9.8%. Further, the EC50 came out at 0.1 nM at Mu-type opioid receptor [2] and 10 nM at Mu-type opioid receptor [5].

For the compound `COc1ccsc1CNCC[C@@]1(c2ccccn2)CCO[C@]2(CCOC2)C1`, the Emax on Mu-type opioid receptor [1] is 63.7%; on Mu-type opioid receptor [3], 1.2%. Further, the 50% effective concentration (EC50) was 20 nM at Mu-type opioid receptor [2] and greater than 30000 nM at Mu-type opioid receptor [5]. Further, in [4], the CLint scaled stood at 9.3 mL/min/kg.

With `COc1ccsc1CNCC[C@@]1(c2ccccn2)CCO[C@@]2(CCOC2)C1`, the Emax at Mu-type opioid receptor [1] amounted to 66.3%. Besides, the 50% effective concentration (EC50) at Mu-type opioid receptor [5] is greater than 30000 nM.

`C[C@@H](Cc1ccsc1)NC(=O)NC[C@H](Cc1ccc(O)cc1)N(C)C`: the results for the maximal response (Emax) on Mu-type opioid receptor [1] and at Mu-type opioid receptor [3] were 89.2% and 5%, respectively. Further, in [4], the CLint scaled was less than 8.6 mL/min/kg.

The record behind these values is ChEMBL document CHEMBL5042488, “Synthesis, biological, and structural explorations of a series of μ-opioid receptor (MOR) agonists with high G protein signaling bias” (Eur J Med Chem, 2022).
